From US20230348401A1, “Inhibitors of Glucose-6-phosphate Dehydrogenase and Uses Thereof” (The Trustees of Princeton University, priority 2020, published 2023)
pIC50: −log10 of the molar value.

Key:
[1] = tested on: bone marrow derived macrophages; assay: Intracellular cytokines in bone marrow-derived macrophages; type: cell-based, mouse
Description: Mouse bone marrow monocyte/macrophage progenitors were isolated from femur and tibia and cultured in BMM media (DMEM supplemented with 10% FBS, 20% L929-conditioned media, 100 U/ml penicillin, and 100 µg/ml streptomycin). Expression of CD11b and F4/80 was checked by flow cytometry after 6 days in culture. Mature macrophages were either maintained in BMM media (M0 macrophages) or stimulated overnight with LPS (100 ng/mL) + IFNγ (20 ng/mL) for M1 activation or IL-4 (20 ng/mL) for M2 activation.
To analyze intracellular cytokines, active T cells were re-stimulated with PMA (20 ng/ml) and ionomycin (1 µg/ml) in the presence of GolgiStop and increasing concentrations of G6PDi-1. After a 6-hour incubation period, cells were collected, washed with PBS and stained with the viability dye Live/Dead Aqua. Cells were then washed with staining buffer and stained for surface markers: CD4 (APC-Cy7, clone RM4-5,), CD8a (PerCP-Cy5.5, clone 53-6.7). Cells were then fixed and permeabilized and stained for intracellular cytokines: IFN-γ (FITC, clone XMG1.2), TNFα (PE-Cyanine7, clone MP6-XT22) and IL-2 (PE, clone JES6-5H4). To analyze intracellular cytokines, mature macrophages were stimulated with LPS (100 ng/mL) + IFNγ (20 ng/mL) in the presence of GolgiStop and increasing concentrations of G6PDi-1. […]

G6PD [2] = biological target: T1, G6PD (Homo sapiens, UniProt P11413); assay: 2H transfer from 1-2H-glucose to NADPH active hydride and C16:0 in HCT116 cells; type: cell-based; design: endogenous in cells; host or cells: HCT116; conditions: HCT116 cells
Source text: Direct Monitoring of NADPH Produced by the G6PD Reaction. […] NADPH production is compartmentalized, and occurs through reduction of its redox partner NADP^+. G6PD is one of the main enzymes that generates NADPH, and catalyzes the transfer of electrons (in the form of hydride) from glucose-6-phosphate to NADP^+. By installing a deuterium at the “one” position of glucose (1-^2H-glucose), the transfer of that deuterium to the active hydride of NADPH via glucose-6-phosphate can be specifically monitored. Also, a major use of cytosolic NADPH is fat synthesis. Transfer of ^2H from glucose via NADPH into free palmitate (C16:0) requires two NADPH per two-carbon unit addition during its synthesis.
Next, G6PD mediated hydride transfer to NADPH was directly monitored. Specifically, transfer of deuterium from 1-^2H-glucose, via glucose-6-phosphate, to the NADPH’s active hydride was monitored (FIG. 1B). […] The impacted step was G6PD, as no change in substrate (G6P) labeling was observed (FIG. 1E). A major use of cytosolic NADPH is fat synthesis. Transfer of ^2H from glucose via NADPH into palmitate (C16:0), which requires two NADPH per 2-carbon unit addition during its synthesis, was quantified (FIG. 1B).
For all experiments involving stable isotope tracers (e.g., 1-^2H-glucose), the isotope tracer nutrient was substituted for unlabeled nutrient at the same concentration normally found in the base media for a given cell type (e.g., DMEM for HCT116, RPMI for T cells, etc.). In addition, dialyzed FBS was used as a supplement in place of FBS.
Cytosolic NADPH sources were traced, and redox active hydride labeling was calculated, using a previously described strategy. 1-^2H-glucose (which directly traces G6PD) or 3-^2H-glucose (which directly traces PGD) were used for tracing oxPPP contribution to NADPH; 4-^2H-glucose for ME1; [2,3,3,4,4-^2H5]-glutamine, for both ME1 and IDH1; and D2O, to account for solvent exchange.
For analysis of intracellular metabolites by LC-MS, adherent cell lines were plated and grown to 80% confluency in 6-well plates. At the start of an experiment, the appropriate media was added to cells, which included isotope tracers and/or chemical inhibitors as described. Cells were incubated at 37° C. at 5% CO2 for 2 hours (unless otherwise noted). For all experiments involving small molecule agents, DMSO concentrations were <0.2%. After 2 hours, media was removed by aspiration and metabolome extraction was performed (without any wash steps) by the addition of 800 µL of ice cold solvent (40:40:20 acetonitrile:methanol:water + 0.5% formic acid). After a 1-minute incubation on ice, the extract was neutralized by the addition of NH4HCO3 (15% w/v). The samples were incubated at -20° C. for approximately 30 minutes, at which point the wells were scraped and the extract transferred to Eppendorf tubes and centrifuged (15 minutes, 16000 rpm, 4° C.). The resulting supernatant was frozen on dry ice and kept at -80° C. until LC-MS analysis.

G6PD [3] = biological target: T1, G6PD; assay: Cellular thermal shift assay (CETSA) in HepG2 lysates; type: binding; design: endogenous in cells; conditions: up to 56° C.
Description: Lysates from HepG2 cells at 75% confluence were isolated with 0.5% Triton in TBS (20 mM, Tris pH 7.4, 150 mM NaCl) for 30 min on ice, pre-cleared by centrifugation and used for thermal shift assay as described 49. Briefly, inhibitor or DMSO control was added to lysates at indicated concentration and incubated for 30 min on ice followed by 3 min heating at 47° C., 50° C., 53° C., and 56° C. in a thermal cycler. After heating, tubes were cooled at room temperature for 3 min and insoluble fraction removed by centrifugation at 17,000 g for 20 min. The soluble fraction was separated by SDS-PAGE, transferred to PVDF membrane, and immunoblotted using indicated antibodies at a dilution of 1:2000. Blots were developed by chemiluminescence and imaged using LI-COR C-DiGit Western Blot Scanner. Two independent experiments were performed. Signal intensity of proteins from immunoblots was quantified using Image Studio version 5.2 for C-DiGit Scanner, and bands were normalized to signal intensity of the 47° C. treated samples. Relative signal intensities were plotted as bar graph relative to the DMSO treated control.

T1 sequence (P11413 whole entry): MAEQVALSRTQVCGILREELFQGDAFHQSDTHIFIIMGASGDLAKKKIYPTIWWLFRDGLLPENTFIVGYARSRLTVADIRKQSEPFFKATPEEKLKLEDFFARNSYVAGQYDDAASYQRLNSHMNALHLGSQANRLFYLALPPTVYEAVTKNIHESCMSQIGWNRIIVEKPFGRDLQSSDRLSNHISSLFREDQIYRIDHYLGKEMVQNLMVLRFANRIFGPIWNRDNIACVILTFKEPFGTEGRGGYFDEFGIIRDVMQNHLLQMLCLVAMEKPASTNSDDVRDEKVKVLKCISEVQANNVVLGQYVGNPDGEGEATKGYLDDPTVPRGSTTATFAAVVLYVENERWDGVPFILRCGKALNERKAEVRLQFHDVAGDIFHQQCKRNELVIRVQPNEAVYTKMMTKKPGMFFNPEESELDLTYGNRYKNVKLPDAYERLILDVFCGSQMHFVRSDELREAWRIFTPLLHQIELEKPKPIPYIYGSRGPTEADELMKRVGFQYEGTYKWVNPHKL

## N#Cc1cc(Nc2ncc3c(n2)CCCCC3=O)cs1 [Compound 2, 4-([5-oxo-6H,7H,8H,9H-cyclohepta[d]pyrimidin-2-yl]amino)thiophene-2-carbonitrile]
[1]; classically activated macrophages (MΦ-1)
  macrophage cytokine production: minimally affecting
[1]; macrophages
  NADPH, LPS-induced pro-inflammatory cytokine production, iNOS upregulation: did not decrease
G6PD [2]; dose-response
  2H transfer from 1-2H-glucose to downstream product C16:0: dose-dependent decrease
G6PD [2]; read-out: IC50, decrease in 2H transfer from 1-2H-glucose to NADPH's active hydride
  pIC50: ~4.51
G6PD [3]
  thermal stabilization of G6PD: significant thermal stabilization of G6PD
